Source: US8288375B2, “Fungicidal bicyclic pyrazoles” (E.I. du Pont de Nemours and Company, priority 2007, dated 2012)

What was measured:
[1] = test system: Puccinia recondite f sp. tritici; test: Test B: wheat leaf rust, test suspension sprayed on wheat seedlings, disease rating; assay type: in vivo; conditions: for Test B disease control rating / pest or weed control at 200 ppm: 200 ppm test suspension; for pest or weed control at 200 ppm / pest or weed control at 40 ppm: Puccinia, 192 h; for pest or weed control at 40 ppm: 40 ppm test suspension (*);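 on all read-outs here: 200 ppm unless marked * meaning 40 ppm or ** meaning 10 ppm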
Rhizoctonia oryzae = test: Test I: turf brown patch, test suspension sprayed on creeping bent grass seedlings, disease rating; assay type: in vivo; conditions: 200 ppm test suspension; for pest or weed control at 200 ppm: Waitea circinata, in Agrostis stolonifera, 120 h
Pythium aphanidermatum = test: Test L: bluegrass pythium blight, test suspension sprayed on bluegrass seedlings, disease rating; assay type: in vivo; conditions: for Test L disease control rating / pest or weed control at 200 ppm: 200 ppm test suspension; for pest or weed control at 200 ppm / pest or weed control at 40 ppm: Pythium aphanidermatum, 120 h; for pest or weed control at 40 ppm: 40 ppm test suspension (*);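 on all read-outs here: 200 ppm unless marked * meaning 40 ppm or ** meaning 10 ppm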
Botrytis cinerea = test: Test H: tomato Botrytis, test suspension sprayed on tomato seedlings, disease rating; assay type: in vivo; conditions: 200 ppm test suspension; for pest or weed control at 200 ppm: Botrytis cinerea, 120 h
Sclerotinia sclerotiorum = test: Test M: cucumber white mold, test suspension sprayed on cucumber seedlings, disease rating; assay type: in vivo; conditions: 200 ppm test suspension
Text: General protocol for preparing test suspensions for Tests A-M: The test compounds were first dissolved in acetone in an amount equal to 3% of the final volume and then suspended at the desired concentration (in ppm) in acetone and purified water (50/50 mix) containing 250 ppm of the surfactant Trem® 014 (polyhydric alcohol esters). The resulting test suspensions were then used in Tests A-M. Spraying a 200 ppm test suspension to the point of run-off on the test plants was the equivalent of an application rate of 500 g/ha.
The test suspension was sprayed to the point of run-off on cucumber seedlings. The following day the seedlings were inoculated with a spore suspension of Sclerotinia sclerotiorum (the causal agent of cucumber white mold) and incubated in saturated atmosphere at 24° C. for 72 h, and then moved to a growth chamber at 24° C. for 3 additional days, after which time disease ratings were made.
Results for Tests A-M are given in Table A. In the table, a rating of 100 indicates 100% disease control and a rating of 0 indicates no disease control (relative to the controls). A dash (-) indicates no test results. All results are for 200 ppm test suspension except where followed by “*” which indicates 40 ppm or by “**” which indicates 10 ppm.

Septoria tritici = test: Test E: wheat leaf blotch, test suspension sprayed on wheat seedlings, disease rating; assay type: in vivo; conditions: for Test E disease control rating / pest or weed control at 200 ppm: 200 ppm test suspension; for pest or weed control at 200 ppm / pest or weed control at 40 ppm: Zymoseptoria tritici, 504 h; for pest or weed control at 40 ppm: 40 ppm test suspension (*);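 on all read-outs here: 200 ppm unless marked * meaning 40 ppm or ** meaning 10 ppm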
Septoria nodorum = test: Test D: wheat glume blotch, test suspension sprayed on wheat seedlings, disease rating; assay type: in vivo; conditions: 200 ppm test suspension; for pest or weed control at 200 ppm: Parastagonospora nodorum, 216 h
[2] = test system: Erysiphe graminis f. sp. tritici; test: Test A: wheat powdery mildew, test suspension sprayed on wheat seedlings, disease rating; assay type: in vivo; conditions: 200 ppm test suspension, 100 = 100% disease control, 0 = no control; for pest or weed control at 200 ppm: Blumeria graminis, 192 h
[3] = test system: Colletotrichum orbiculare; test: Test F: cucumber Colletotrichum anthracnose, test suspension sprayed on cucumber seedlings, disease rating; assay type: in vivo; conditions: 200 ppm test suspension; for pest or weed control at 200 ppm: Colletotrichum orbiculare, 144 h
Phytophthora infestans = test: whole plant or invertebrate; assay type: in vivo; conditions: for Test J disease control rating: 200 ppm test suspension; for pest or weed control at 200 ppm / pest or weed control at 40 ppm: Phytophthora infestans, in Solanum lycopersicum, 120 h, read-out: Test J disease control rating
Plasmopara viticola = test: Test K: grape downy mildew, grape seedlings inoculated and then sprayed, disease rating; assay type: in vivo; conditions: 200 ppm test suspension
Fusarium graminearum = test: whole plant or invertebrate; assay type: in vivo; conditions: for pest or weed control at 200 ppm / pest or weed control at 40 ppm: Fusarium graminearum, in Triticum aestivum, 192 h, read-out: Test C disease control rating
Alternaria solani = test: Test G: tomato early blight, test suspension sprayed on seedlings, disease rating; assay type: in vivo; conditions: Alternaria solani, 168 h; for pest or weed control at 40 ppm: 40 ppm test suspension (*); for pest or weed control at 200 ppm: 200 ppm test suspension;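 on all read-outs here: 200 ppm unless marked * meaning 40 ppm or ** meaning 10 ppm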

## COCC(C)Nc1nccc(-c2c(-c3ccc(F)cc3)nn3c2CCCC3)n1 (centres unmarked) [compound 1]
[1]
  Test B disease control rating: 100%
Rhizoctonia oryzae
  Test I disease control rating: 41%
Pythium aphanidermatum
  Test L disease control rating: 100%
Botrytis cinerea
  Test H disease control rating: 91%
Sclerotinia sclerotiorum
  Test M disease control rating: 99%
Septoria tritici
  Test E disease control rating: 98%
Septoria nodorum
  Test D disease control rating: 98%
[2]
  Test A disease control rating: 94%
[3]
  Test F disease control rating: 96%
Phytophthora infestans
  Test J disease control rating: 100%
Plasmopara viticola
  Test K disease control rating: 0%
Fusarium graminearum; 200 ppm test suspension
  Test C disease control rating: 100%

## CCC(C)Nc1nccc(-c2c(-c3ccc(F)cc3)nn3c2CCCC3)n1 (centres unmarked) [compound 2]
[1]
  Test B disease control rating: 98%
Rhizoctonia oryzae
  Test I disease control rating: 31%
Pythium aphanidermatum
  Test L disease control rating: 100%
Botrytis cinerea
  Test H disease control rating: 92%
Sclerotinia sclerotiorum
  Test M disease control rating: 0%
Septoria tritici
  Test E disease control rating: 97%
Septoria nodorum
  Test D disease control rating: 98%
[2]
  Test A disease control rating: 0%
[3]
  Test F disease control rating: 85%
Phytophthora infestans
  Test J disease control rating: 47%
Plasmopara viticola
  Test K disease control rating: 0%

## CC(C)Nc1nccc(-c2c(-c3ccc(F)cc3)nn3c2COCC3)n1 [Compound 107, 4-[2-(4-fluorophenyl)-6,7-dihydro-4H-pyrazolo[5,1-c][1,4]oxazin-3-yl]-N-(1-methylethyl)-2-pyrimidinamine]
[1]
  pest or weed control at 200 ppm: 99%
Rhizoctonia oryzae
  pest or weed control at 200 ppm: 80%
Pythium aphanidermatum
  pest or weed control at 200 ppm: 100%
Botrytis cinerea
  pest or weed control at 200 ppm: 90%
Alternaria solani
  pest or weed control at 40 ppm: 99%
Septoria tritici
  pest or weed control at 200 ppm: 100%
other
  melting point: 144 to 146 °C
Septoria nodorum
  pest or weed control at 200 ppm: 99%
[2]
  pest or weed control at 200 ppm: 92%
[3]
  pest or weed control at 200 ppm: 99%
Phytophthora infestans
  pest or weed control at 200 ppm: 100%
Fusarium graminearum
  pest or weed control at 200 ppm: 99%

## COC(=O)N1CCn2nc(-c3ccc(F)cc3)c(-c3ccnc(NC(C)C)n3)c2C1 [Compound 138, methyl 2-(4-fluorophenyl)-6,7-dihydro-3-[2-[(1-methylethyl)amino]-4-pyrimidinyl]pyrazolo[1,5-a]pyrazine-5(4H)-carboxylate]
[1]
  pest or weed control at 40 ppm: 98%
Rhizoctonia oryzae
  pest or weed control at 200 ppm: 0%
Pythium aphanidermatum
  pest or weed control at 40 ppm: 99%
Botrytis cinerea
  pest or weed control at 200 ppm: 68%
Alternaria solani
  pest or weed control at 40 ppm: 99%
Septoria tritici
  pest or weed control at 40 ppm: 83%
other
  melting point: 88 to 89 °C
Septoria nodorum
  pest or weed control at 200 ppm: 99%
[2]
  pest or weed control at 200 ppm: 0%
Phytophthora infestans
  pest or weed control at 40 ppm: 88%
Fusarium graminearum
  pest or weed control at 40 ppm: 86%

## c1cc(-c2c(-c3ccsc3)nn3c2COCC3)nc(NC2CC2)n1 [Compound 121, N-cyclopropyl-4-[6,7-dihydro-2-(3-thienyl)-4H-pyrazolo[5,1-c][1,4]oxazin-3-yl]-2-pyrimidinamine]
[1]
  pest or weed control at 200 ppm: 94%
Pythium aphanidermatum
  pest or weed control at 200 ppm: 99%
Botrytis cinerea
  pest or weed control at 200 ppm: 66%
Alternaria solani
  pest or weed control at 200 ppm: 89%
Septoria tritici
  pest or weed control at 200 ppm: 93%
other
  melting point: 182 to 184 °C
Septoria nodorum
  pest or weed control at 200 ppm: 84%
[2]
  pest or weed control at 200 ppm: 0%
[3]
  pest or weed control at 200 ppm: 15%
Phytophthora infestans
  pest or weed control at 200 ppm: 97%
Fusarium graminearum
  pest or weed control at 200 ppm: 99%

## Fc1ccc(-c2nn3c(c2-c2ccnc(NC4CC4)n2)CCCN3)cc1 [Compound 131, N-cyclopropyl-4-[2-(4-fluorophenyl)-4,5,6,7-tetrahydropyrazolo[1,5-b]pyridazin-3-yl]-2-pyrimidinamine]
[1]
  pest or weed control at 200 ppm: 100%
Rhizoctonia oryzae
  pest or weed control at 200 ppm: 57%
Pythium aphanidermatum
  pest or weed control at 200 ppm: 100%
Botrytis cinerea
  pest or weed control at 200 ppm: 9%
Alternaria solani
  pest or weed control at 200 ppm: 81%
other
  melting point: 184 to 187 °C
Septoria nodorum
  pest or weed control at 200 ppm: 87%
[2]
  pest or weed control at 200 ppm: 96%
[3]
  pest or weed control at 200 ppm: 58%
Phytophthora infestans
  pest or weed control at 200 ppm: 97%
Plasmopara viticola
  Test K disease control rating: 0%
Fusarium graminearum
  pest or weed control at 200 ppm: 100%

## CC(CO)Nc1nccc(-c2c(-c3ccc(F)cc3)nn3c2CCCN3)n1 (centres unmarked) [Compound 132, 2-[[4-[2-(4-fluorophenyl)-4,5,6,7-tetrahydropyrazolo[1,5-b]pyridazin-3-yl]-2-pyrimidinyl]amino]-1-propanol]
[1]
  pest or weed control at 40 ppm: 88%
Rhizoctonia oryzae
  pest or weed control at 200 ppm: 0%
Pythium aphanidermatum
  pest or weed control at 40 ppm: 100%
Botrytis cinerea
  pest or weed control at 200 ppm: 0%
Alternaria solani
  pest or weed control at 40 ppm: 0%
Septoria tritici
  pest or weed control at 40 ppm: 0%
other
  melting point: 165 to 167 °C
Septoria nodorum
  pest or weed control at 200 ppm: 0%
[2]
  pest or weed control at 200 ppm: 66%
[3]
  pest or weed control at 200 ppm: 0%
Phytophthora infestans
  pest or weed control at 40 ppm: 65%
Fusarium graminearum
  pest or weed control at 40 ppm: 0%

## Fc1ccc(-c2nn3c(c2-c2ccnc(NC4CC4)n2)CCCC3)cc1 [Compound 12, N-cyclopropyl-4-[2-(4-fluorophenyl)-4,5,6,7-tetrahydropyrazolo[1,5-a]pyridin-3-yl]-2-pyrimidinamine]
[1]
  pest or weed control at 200 ppm: 99%
Rhizoctonia oryzae
  pest or weed control at 200 ppm: 64%
Pythium aphanidermatum
  pest or weed control at 200 ppm: 100%
Botrytis cinerea
  pest or weed control at 200 ppm: 98%
Septoria tritici
  pest or weed control at 200 ppm: 100%
other
  melting point: 164 to 165 °C
Septoria nodorum
  pest or weed control at 200 ppm: 99%
[2]
  pest or weed control at 200 ppm: 97%
[3]
  pest or weed control at 200 ppm: 94%
Phytophthora infestans
  pest or weed control at 200 ppm: 100%
Plasmopara viticola
  Test K disease control rating: 0%
Fusarium graminearum
  pest or weed control at 200 ppm: 100%

## CC(C)Nc1nccc(-c2c(-c3ccc(F)cc3)nn3c2CCCC3)n1 [Compound 8, 4-[2-(4-fluorophenyl)-4,5,6,7-tetrahydropyrazolo[1,5-a]pyridin-3-yl]-N-(1-methylethyl)-2-pyrimidinamine]
[1]
  pest or weed control at 200 ppm: 99%
Rhizoctonia oryzae
  pest or weed control at 200 ppm: 62%
Pythium aphanidermatum
  pest or weed control at 200 ppm: 100%
Botrytis cinerea
  pest or weed control at 200 ppm: 97%
Alternaria solani
  pest or weed control at 40 ppm: 99%
Septoria tritici
  pest or weed control at 200 ppm: 100%
other
  melting point: 178 to 180 °C
Septoria nodorum
  pest or weed control at 200 ppm: 100%
[2]
  pest or weed control at 200 ppm: 81%
[3]
  pest or weed control at 200 ppm: 99%
Phytophthora infestans
  pest or weed control at 200 ppm: 100%
Fusarium graminearum
  pest or weed control at 200 ppm: 100%

## CC(C)Nc1nccc(-c2c(-c3ccc(F)cc3)nn3c2CCOC3)n1 [Compound 112, 4-[2-(4-fluorophenyl)-4,5-dihydro-7H-pyrazolo[1,5-c][1,3]oxazin-3-yl]-N-(1-methylethyl)-2-pyrimidinamine]
[1]
  pest or weed control at 200 ppm: 95%
Pythium aphanidermatum
  pest or weed control at 200 ppm: 99%
Septoria tritici
  pest or weed control at 200 ppm: 99%
other
  melting point: 167 to 169 °C
Septoria nodorum
  pest or weed control at 200 ppm: 93%
[2]
  pest or weed control at 200 ppm: 0%
Phytophthora infestans
  pest or weed control at 200 ppm: 99%
Fusarium graminearum
  pest or weed control at 200 ppm: 100%
